Calls of active or inactive are those of the source. No cut-off for these calls is given here. Starred links: 1 amine or outer side, 2 acyl side, 3 side chain; linkers in the order of their positions; H or OH if unused. Non-standard residues stand in square brackets, D forms with d. Residues, ends and D or L forms follow the SMILES beside them. *: point of attachment. C20 diacid = O=C(O)CCCCCCCCCCCCCCCCCCC(=O)*; γGlu = O=C(O)[C@H](CCC(=O)[*:2])N[*:1]; Iva = CC[C@](C)(N)C(=O)O; PEG2 = NCCOCCOCCC(=O)O
Tests used:
A549 [1] = assay: Antifibrotic activity against BLM-induced human A549 cells cocultured with RAW264.7 cells assessed as reduction in Fn expression at 10 uM after 24 hrs by Western blotting analysis; format: functional, cell-based
Mus musculus [2] = assay: Antifibrotic activity against BLM-induced C57BL/6 mouse pulmonary fibrosis model assessed as reduction in lung hydroxyproline content at 150 ug/kg, sc administered for 2 weeks starting from 7 days post BLM induction and measured after 21 days post BLM induction; format: functional, organism-based; details: dose 150.0 µg/kg
Mus musculus [3] = assay: Antifibrotic activity against BLM-induced C57BL/6 mouse pulmonary fibrosis model assessed as reduction in TIMP-1 expression at 240 ug/kg/day, sc administered for 2 weeks starting from 7 days post BLM induction and measured after 21 days post BLM induction in presence of GM6001; format: functional, organism-based; details: dose 240.0 µg/kg/day
Mus musculus [4] = assay: Antifibrotic activity against BLM-induced C57BL/6 mouse pulmonary fibrosis model assessed as reduction in Cthrc1 gene expression at 240 ug/kg/day, sc administered for 2 weeks starting from 7 days post BLM induction and measured after 21 days post BLM induction by ScRNA-sequencing analysis; format: functional, organism-based; details: dose 240.0 µg/kg/day
Mus musculus [5] = assay: Antifibrotic activity against BLM-induced C57BL/6 mouse pulmonary fibrosis model assessed as reduction in Tnc gene expression at 240 ug/kg/day, sc administered for 2 weeks starting from 7 days post BLM induction and measured after 21 days post BLM induction by ScRNA-sequencing analysis; format: functional, organism-based; details: dose 240.0 µg/kg/day
Mus musculus [6] = assay: Antifibrotic activity against BLM-induced C57BL/6 mouse pulmonary fibrosis model assessed as reduction in FN expression at 240 ug/kg/day, sc administered for 2 weeks starting from 7 days post BLM induction and measured after 21 days post BLM induction in presence of GM6001; format: functional, organism-based; details: dose 240.0 µg/kg/day
A549 [7] = assay: Antifibrotic activity against TNFalpha-induced human A549 cells assessed as downregulation of Fn expression level at 10 uM incubated for 24 hrs by Western blotting analysis; format: functional, cell-based
RAW264.7 [8] = assay: Antifibrotic activity against BLM-induced mouse RAW264.7 cells assessed as downregulation in TIMP-1 expression at 10 uM after 24 hrs by Western blotting analysis; format: functional, cell-based
Mus musculus [9] = assay: Antifibrotic activity against BLM-induced C57BL/6 mouse pulmonary fibrosis model assessed as increase in monocytes in BALF at 30 to 240 ug/kg/day, sc administered for 2 weeks starting from 7 days post BLM induction and measured after 21 days post BLM induction; format: functional, organism-based; details: dose 30-240 µg/kg/day
A549 [10] = assay: Antifibrotic activity against BLM-induced human A549 cells assessed as reduction in FN expression at 10 uM after 24 hrs by Western blotting analysis; format: functional, cell-based
[11] = Half-life in Sprague-Dawley rat serum at 0.04 mg/kg, sc administered as single dose measured upto 10 days by LC-MS/MS method; format: ADME, organism-based; details: time < 10 day
Mus musculus [12] = assay: Antifibrotic activity against BLM-induced C57BL/6 mouse pulmonary fibrosis model assessed as increase in serum MMP-12 level at 30 to 240 ug/kg/day, sc administered for 2 weeks starting from 7 days post BLM induction and measured after 21 days post BLM induction; format: functional, organism-based; details: dose 30-240 µg/kg/day
TC-1 = assay: Inhibition of EBP signaling pathway in TGFalpha induced mouse TC-1 cells assessed as reduction in ERK phosphorylation at 10 uM incubated for 24 hrs by Western blotting analysis; format: cell-based
Mus musculus [13] = assay: Antifibrotic activity against BLM-induced C57BL/6 mouse pulmonary fibrosis model assessed as reduction in Des gene expression at 240 ug/kg/day, sc administered for 2 weeks starting from 7 days post BLM induction and measured after 21 days post BLM induction by ScRNA-sequencing analysis; format: functional, organism-based; details: dose 240.0 µg/kg/day
Mus musculus [14] = assay: Antifibrotic activity against BLM-induced C57BL/6 mouse pulmonary fibrosis model assessed as reversal of body weight loss at 150 ug/kg, sc administered for 2 weeks starting from 7 days post BLM induction and measured after 21 days post BLM induction; format: functional, organism-based; details: dose 150.0 µg/kg
Mus musculus [15] = assay: Antifibrotic activity against BLM-induced C57BL/6 mouse pulmonary fibrosis model assessed as reduction in Adamts2 gene expression at 240 ug/kg/day, sc administered for 2 weeks starting from 7 days post BLM induction and measured after 21 days post BLM induction by ScRNA-sequencing analysis; format: functional, organism-based; details: dose 240.0 µg/kg/day
RAW264.7 [16] = assay: Effect on cell proliferation in mouse RAW264.7 cells at 10 uM after 24 hrs by flow cytometry analysis; format: functional, cell-based
[17] = Tmax in Sprague-Dawley rat serum at 0.04 mg/kg, sc administered as single dose measured upto 10 days by LC-MS/MS method; format: ADME, organism-based; details: time < 10 day
Mus musculus [18] = assay: Antifibrotic activity against BLM-induced C57BL/6 mouse pulmonary fibrosis model assessed as reduction in Vimentin expression at 240 ug/kg/day, sc administered for 2 weeks starting from 7 days post BLM induction and measured after 21 days post BLM induction in presence of Clo-Lip; format: functional, organism-based; details: dose 240.0 µg/kg/day
Mus musculus [19] = assay: Antifibrotic activity against BLM-induced C57BL/6 mouse pulmonary fibrosis model assessed as reduction in alpha-SMA expression at 240 ug/kg/day, sc administered for 2 weeks starting from 7 days post BLM induction and measured after 21 days post BLM induction in presence of GM6001; format: functional, organism-based; details: dose 240.0 µg/kg/day
Mus musculus [20] = assay: Antifibrotic activity against BLM-induced C57BL/6 mouse pulmonary fibrosis model assessed as reduction in Tpm1 gene expression at 240 ug/kg/day, sc administered for 2 weeks starting from 7 days post BLM induction and measured after 21 days post BLM induction by ScRNA-sequencing analysis; format: functional, organism-based; details: dose 240.0 µg/kg/day
Mus musculus [21] = assay: Antifibrotic activity against BLM-induced C57BL/6 mouse pulmonary fibrosis model at 240 ug/kg/day, sc administered for 2 weeks starting from 7 days post BLM induction and measured after 21 days post BLM induction in presence of Clo-Lip; format: functional, organism-based; details: dose 240.0 µg/kg/day
Mus musculus [22] = assay: Antifibrotic activity against BLM-induced C57BL/6 mouse pulmonary fibrosis model assessed as reduction in Col3a1 gene expression at 240 ug/kg/day, sc administered for 2 weeks starting from 7 days post BLM induction and measured after 21 days post BLM induction by ScRNA-sequencing analysis; format: functional, organism-based; details: dose 240.0 µg/kg/day
Mus musculus [23] = assay: Antifibrotic activity against BLM-induced C57BL/6 mouse pulmonary fibrosis model assessed as reduction in Vimentin expression at 240 ug/kg/day, sc administered for 2 weeks starting from 7 days post BLM induction and measured after 21 days post BLM induction in presence of GM6001; format: functional, organism-based; details: dose 240.0 µg/kg/day
Mus musculus [24] = assay: Antifibrotic activity against BLM-induced C57BL/6 mouse pulmonary fibrosis model assessed as downregulation of Mmp-9 gene expression in lung tissue at 150 ug/kg, sc administered for 2 weeks starting from 7 days post BLM induction and measured after 21 days post BLM induction by RT-qPCR assay; format: functional, organism-based; details: dose 150.0 µg/kg
RAW264.7 [25] = assay: Antifibrotic activity against BLM-induced mouse RAW264.7 cells assessed as upregulation of MMP-12 expression at 10 uM incubated for 6 to 24 hrs by ELISA; format: functional, cell-based; details: time 6-24 hrs
Mus musculus [26] = assay: Antifibrotic activity against BLM-induced C57BL/6 mouse pulmonary fibrosis model assessed as reduction in Eln gene expression at 240 ug/kg/day, sc administered for 2 weeks starting from 7 days post BLM induction and measured after 21 days post BLM induction by ScRNA-sequencing analysis; format: functional, organism-based; details: dose 240.0 µg/kg/day
Mus musculus [27] = assay: Antifibrotic activity against BLM-induced C57BL/6 mouse pulmonary fibrosis model assessed as increase in MMP-12 expression at 240 ug/kg/day, sc administered for 2 weeks starting from 7 days post BLM induction and measured after 21 days post BLM induction; format: functional, organism-based; details: dose 240.0 µg/kg/day

half-life [11]: 33.4 h | Tmax [17]: 24 h
SMILES: CC[C@](C)(NC(=O)[C@@H](NC(=O)CCOCCOCCNC(=O)CCOCCOCCNC(=O)CC[C@H](NC(=O)CCCCCCCCCCCCCCCCCCC(=O)O)C(=O)O)C(C)C)C(=O)NCC(=O)N[C@@H](CO)C(=O)N1CCC[C@H]1C(=O)N[C@@H](CO)C(=O)N[C@@H](C)C(=O)N[C@@H](CCC(N)=O)C(=O)N[C@@H](CCC(=O)O)C(=O)N[C@@H](CCC(=O)O)C(=O)N[C@@H](C)C(=O)N[C@@H](CO)C(=O)N1CCC[C@H]1C(=O)N[C@@H](C)C(N)=O ({C20 diacid-γGlu-PEG2-PEG2}-V[Iva]GSPSAQEEASPA-NH2)
Activity (A549 [1]): Active | Activity (Mus musculus [2]): Active | Activity (Mus musculus [3]): inactive | Activity (Mus musculus [4]): Active | Activity (Mus musculus [5]): Active | Activity (Mus musculus [6]): inactive | Activity (A549 [7]): Active | Activity (RAW264.7 [8]): Active | Activity (Mus musculus [9]): Active | Activity (A549 [10]): Active | Activity (Mus musculus [12]): Active | inhibition (TC-1): Active | Activity (Mus musculus [13]): Active | Activity (Mus musculus [14]): Active | Activity (Mus musculus [15]): Active | Activity (RAW264.7 [16]): inactive | Activity (Mus musculus [18]): inactive | Activity (Mus musculus [19]): inactive | Activity (Mus musculus [20]): Active | Activity (Mus musculus [21]): inactive | Activity (Mus musculus [22]): Active | Activity (Mus musculus [23]): inactive | Activity (Mus musculus [24]): Active | Activity (RAW264.7 [25]): Active | Activity (Mus musculus [26]): Active | Activity (Mus musculus [27]): Active

From ChEMBL document CHEMBL5543137, “Design and Synthesis of Novel Ultralong-Acting Peptides as EDP-EBP Interaction Inhibitors for Pulmonary Fibrosis Treatment” (J Med Chem, 2024)
